Columns and labels:
human PKCα = human PKCα (Homo sapiens, UniProt P17252); test: PKC isoforms based HTRF KinEASE-STK assay, PKCα; type: biochemical; conditions: 50 μM ATP in substrate mix, 30 min
Description: (§1) The purpose of this assay is to evaluate the inhibitory activity of compounds on various PKC isoforms. It has been reported that perturbations in vascular cell homeostasis caused by different PKC isoforms (PKC-α, β1/2, and PKC-δ) are linked to the development of pathologies affecting large vessel (atherosclerosis, cardiomyopathy) and small vessel (retinopathy, nephropathy, and neuropathy) complications. Geraldes, P. and King, G. L., “Activation of Protein Kinase C Isoforms and Its Impact on Diabetic Complications”, Cir.
(§2) Effects of a test compound on the kinase activity of PKCα, β2, δ, ε, ι, and ζ, are determined using a HTRF KINEASE™-STK assay kit (Cisbio) in accordance with the protocol provided by the vendor. It is a general method for measuring Serine/Threonine kinase activities using kinase substrates and a universal detection system. In the current protocol, biotinilated STK1provided in the assay kit is used as the substrate that can be phosphorylated by any PKC isoform. The HTRF KINEASE™-STK assay kit format involves the two steps (Enzymatic step and Detection step) described below. First, the kinase phosphorylates the substrate in the presence of ATP. Second, the detection reagents provided in the assay kit recognize the phosphorylated substrate.

human PKCι = target: T1, human PKCι (Homo sapiens, UniProt P41743); test: PKC isoforms based HTRF KinEASE-STK assay, PKCι; type: biochemical; conditions: 87.5 μM ATP in substrate mix, 70 min
T1 sequence (P41743 1-596): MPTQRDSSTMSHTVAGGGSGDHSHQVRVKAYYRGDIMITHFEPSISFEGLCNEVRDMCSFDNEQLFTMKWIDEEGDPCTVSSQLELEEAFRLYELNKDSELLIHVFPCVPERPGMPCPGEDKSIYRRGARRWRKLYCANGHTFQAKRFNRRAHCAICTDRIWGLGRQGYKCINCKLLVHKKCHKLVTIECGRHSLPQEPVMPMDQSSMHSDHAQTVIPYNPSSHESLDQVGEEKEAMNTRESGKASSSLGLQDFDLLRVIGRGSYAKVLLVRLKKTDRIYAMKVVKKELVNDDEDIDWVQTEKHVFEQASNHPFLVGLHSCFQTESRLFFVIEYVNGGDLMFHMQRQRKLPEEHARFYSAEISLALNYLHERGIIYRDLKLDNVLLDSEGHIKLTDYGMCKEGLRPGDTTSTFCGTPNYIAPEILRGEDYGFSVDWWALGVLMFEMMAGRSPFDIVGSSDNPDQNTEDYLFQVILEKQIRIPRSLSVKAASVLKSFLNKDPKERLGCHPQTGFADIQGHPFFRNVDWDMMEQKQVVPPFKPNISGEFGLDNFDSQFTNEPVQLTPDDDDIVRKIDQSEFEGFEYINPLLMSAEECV
Description: as §1, §2

db/db mice = test: Efficacy animal model of diabetic nephropathy (albuminuria, uninephrectomized db/db mice); type: in vivo, mouse; conditions: oral gavage twice a day
Description: The purpose of this assay is to analyze compound efficacy in a mouse model of diabetic nephropathy. The earliest clinical manifestation of diabetic nephropathy is albuminuria, leakage of albumin in the urine. Because diabetic nephropathy can be present without any symptoms, early diagnosis is critical so that treatment can be started. The key test for early diagnosis of diabetic nephropathy involves checking for the presence of albuminuria. Thus, if a compound reduces albumin levels in the urine in a diabetic patient, it would likely indicate efficacy of the compound in the treatment of diabetic nephropathy. To model diabetic nephropathy, a combination of genetically driven type 2 diabetes and uninephrectomy is utilized. Six week-old db/db mice (genetic strain: C57 BL KsJ, ChemPartner, Shanghai) receive standard rodent chow and water ad libitum. The left kidney is removed under anesthesia with 0.6% sodium pentobarbital at 60 mg/kg body weight (10 μL/g i.p.). Seven days after surgery, urine is collected for 24 h in a metabolic cage to measure albuminuria levels and blood is collected by tail snip to determine glucose levels. For compound treatment, the animals are randomized based on 24-h albuminuria, blood glucose, and body weight. A test compound is dissolved in 4% DMSO (aqueous) and administered twice a day by oral gavage. […] During the treatment period, albuminuria is analyzed monthly. […]

In the case of `C[C@@H]1CN(C(=O)c2cc(-c3c(F)cc(O)cc3F)cc3cnsc23)C[C@H](C)N1.Cl` [Example 2, 4-(7-{[(3R,5 S)-3,5-DIMETHYLPIPERAZIN-1-YL]CARBONYL}-1,2-BENZOTHIAZOL-5-YL)-3,5-DIFLUOROPHENOL HYDROCHLORIDE], the IC50 (human PKCα) is reported as roughly 16.6 nM, the IC50 (human PKCι) is reported as greater than 20000 nM and the ED50 (db/db mice; Mus musculus, uninephrectomized db/db mice, read-out: ED50, reduction of albuminuria) is reported as roughly 25.3 mg/kg. For the same compound, the “actual mean levels of albumin in the urine (collected during 24 hours)” value (db/db mice; db/db mice, dose of 30 mg/kg) was 85.0 ± 6.9 µg.

Source: patent publication US20170246166A1, “1,2-BENZOTHIAZOLE COMPOUNDS FOR THE TREATMENT OF KIDNEY DISORDERS” (priority 2014, published 2017)
